Measurements taken from patent publication US20120142623A1, “Compositions And Methods For Predicting Inhibitors Of Protein Targets” (priority 2006, published 2012).
Read-outs that look alike come from different tables or passages of the source.

Experiments:
HSV2 protease = molecular target: T1, HSV2 protease (Human herpesvirus 2, UniProt P89449); assay: Surface Plasmon Resonance (SPR), dissociation constant for HSV protease; assay type: binding, herpes simplex virus (HSV2)
T1 construct: HSV2 protease Kd (uM)
Source text: (§1) The first experimental verification of our computational predictions were with TMPyP4, the top ranking inhibitor predicted to bind to all known herpesvirus proteases (see FIG. 3). This is also the inhibitor that we have characterized most computationally and experimentally, so we focus primarily on this inhibitor. […] Traditional approaches to design an inhibitor against this molecule is likely to fail since it has an extremely shallow active site pocket. However, protease dimerisation is essential for protein function and our top ranking inhibitor not only fit around the active site (covering it) but also intercolated itself in the dimer interface. Our predicted mode of action was therefore two fold: covering the surface of the active site, and inhibition of dimerisation in a reversible manner (i.e., as dimers formed, our inhibitor would bind which would disrupt the dimer, resulting in the inhibitor binding weakly and likely released, which would lead to reformation of the dimer, and so on). FIG. 3 illustrates this mode of action. […] TMPyP4 is the only known compound that is capable of inhibiting all three classes of herpesviruses.
(§2) Four inhibitors were evaluated; our top ranking one (TMPyP4) clearly binds to all three proteases as predicted. […] A third inhibitor, GW8510, predicted to bind fails (i.e., a misprediction). […]

[1] = system: chloroquine-sensitive strain 3D7 of P. falciparum; assay: P. falciparum growth inhibition in culture, strain 3D7; assay type: cell-based, Plasmodium falciparum; conditions: for EC50: Plasmodium falciparum, 3D7
[2] = system: chloroquine-resistant strain K1 of P. falciparum; assay: P. falciparum growth inhibition in culture, strain K1; assay type: cell-based, Plasmodium falciparum; conditions: Plasmodium falciparum, K1
HSV protease = assay: Surface Plasmon Resonance, HSV protease; assay type: binding; conditions: SPR, FIG. 4
Method: (§3) Four inhibitors were evaluated; our top ranking one (TMPyP4) clearly binds to all three proteases as predicted. […] A third inhibitor, GW8510, predicted to bind fails (i.e., a misprediction). […] Our inhibitor prediction is completely consistent with the observed experimental data which is verified further by cell culture studies in FIG. 4 and compared to existing antiherpes drugs.

HSV-1 strain F = assay: HSV-1 infection of Vero cells, virus titer; assay type: cell-based
CMV = CMV infection of HFF cells, virus titer; assay type: cell-based; conditions: FIG. 5
KSHV = KSHV inhibition, different assay, fold reduction; assay type: cell-based; conditions: FIG. 5
[3] = system: herpesvirus lytic phase viral growth; assay: Herpesvirus lytic phase viral growth in vitro; assay type: cell-based; conditions: dose-dependent, starting at micromolar concentrations
CMV protease [4] = molecular target: T2, CMV protease (Human cytomegalovirus, UniProt P16753); assay: Surface Plasmon Resonance (SPR), dissociation constant for CMV protease; assay type: binding; set-up: CMV protease Kd (uM)
Source text: as §1, §2

KSHV protease [5] = molecular target: T3, KSHV protease (Human herpesvirus 8 type P, UniProt Q2HRB6); assay: Surface Plasmon Resonance (SPR), dissociation constant for KSHV protease; assay type: binding, Kaposi's sarcoma virus (KSHV); set-up: KSHV protease Kd (uM)
Source text: as §1, §2

CMV protease [6] = molecular target: T2, CMV protease; assay: Surface Plasmon Resonance, CMV protease; assay type: binding; set-up: herpes simplex virus (HSV) proteases (including HSV2, VZV, EBV, CMV, and KSHV); conditions: SPR, FIG. 4
Method: as §3

KSHV protease [7] = molecular target: T3, KSHV protease; assay: Surface Plasmon Resonance, KSHV protease; assay type: binding; set-up: herpes simplex virus (HSV) proteases (including HSV2, VZV, EBV, CMV, and KSHV); conditions: SPR, FIG. 4
Method: as §3

T2 sequence (P16753 1-256): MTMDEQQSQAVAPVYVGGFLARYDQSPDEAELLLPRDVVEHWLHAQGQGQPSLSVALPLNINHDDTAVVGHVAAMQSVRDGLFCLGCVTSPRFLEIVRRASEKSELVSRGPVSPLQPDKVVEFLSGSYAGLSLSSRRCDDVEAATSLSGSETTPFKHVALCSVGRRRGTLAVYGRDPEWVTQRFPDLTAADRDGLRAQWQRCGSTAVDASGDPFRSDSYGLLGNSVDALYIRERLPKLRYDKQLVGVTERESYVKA
T3 sequence (Q2HRB6 1-230): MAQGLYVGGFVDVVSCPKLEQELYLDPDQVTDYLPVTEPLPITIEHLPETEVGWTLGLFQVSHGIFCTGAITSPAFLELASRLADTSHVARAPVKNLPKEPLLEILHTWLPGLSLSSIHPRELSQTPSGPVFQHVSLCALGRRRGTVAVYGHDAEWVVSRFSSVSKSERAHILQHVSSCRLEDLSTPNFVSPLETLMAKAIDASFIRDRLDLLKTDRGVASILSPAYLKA
T1 sequence (P89449 1-247): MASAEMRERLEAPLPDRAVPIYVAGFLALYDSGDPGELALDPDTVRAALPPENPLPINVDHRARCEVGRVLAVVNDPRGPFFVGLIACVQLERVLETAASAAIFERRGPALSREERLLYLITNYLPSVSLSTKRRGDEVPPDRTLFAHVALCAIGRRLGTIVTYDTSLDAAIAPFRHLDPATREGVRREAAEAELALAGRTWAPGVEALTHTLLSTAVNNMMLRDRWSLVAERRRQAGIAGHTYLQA

C[n+]1ccc(-c2c3nc(c(-c4cc[n+](C)cc4)c4ccc([nH]4)c(-c4cc[n+](C)cc4)c4nc(c(-c5cc[n+](C)cc5)c5ccc2[nH]5)C=C4)C=C3)cc1 [TMPyP4, meso-5,10,15,20-Tetrakis-(N-methyl-4-pyridyl)porphine tetratosylate]
Kd (HSV2 protease): 40000 nM
EC50 ([1]; Table 3 section A, mean of at least two measurements, read-out: ED50 in 3D7): 1 µM
EC50 ([1]; Table 5, read-out: ED50 (μM) in 3D7): 1 µM
result of the 16 tested inhibitors in words (binding) ([1]; summary of Table 5): moderate binding
EC50 ([2]; Table 3 section A, mean of at least two measurements, read-out: ED50 in K1): 1 µM
EC50 ([2]; Table 5, read-out: ED50 (μM) in K1): 1 µM
disassociation constant (Kd), HSV protease (HSV protease): micromolar range
effect used together with acylovir (HSV-1 strain F; FIG. 5 bottom left panel, virus not named): almost completely eliminates all virus when used together
effectiveness after passage for several cycles with both acylovir and TMPyP4 (HSV-1 strain F; FIG. 5 bottom right panel, virus not named): still continues to be effective
inhibition of HSV, virus titer (HSV-1 strain F; Vero cells, HSV-1 strain F, FIG. 5): comparably or better than existing antiherpes drugs
inhibition of CMV, virus titer (CMV): comparably or better than existing antiherpes drugs
inhibition of KSHV (KSHV): inhibited KSHV
inhibition of lytic phase viral growth [3]: 90%
Kd (CMV protease [4]): 36000 nM
Kd (KSHV protease [5]): 32800 nM
disassociation constant (Kd), CMV protease (CMV protease [6]): micromolar range
disassociation constant (Kd), KSHV protease (KSHV protease [7]): micromolar range
